Experimental data reported in patent EP2110134A1, “Cocoa extract compounds and methods for making and using the same” (MARS, INCORPORATED, priority 1996, dated 1997).

Experiments:
[1] = Rancimat oxidative stability test; conditions: 100°C, 20 cc/min air
Protocol: The procedures described in Examples 1, 2 and 3 were used to prepare cocoa extracts which were manipulated further to produce two fractions from gel permeation chromatography. These two fractions are actually combined fractions A through C, and D and E (See Figure 1) whose antioxidant properties were compared against the synthetic antioxidants BHA and BHT.
Peanut Oil was pressed from unroasted peanuts after the skins were removed. 50µL of methanol solubilized antioxidant was added to each sample to aid in dispersion of the antioxidant. A control sample was prepared with 50µL of methanol containing no antioxidant.
The samples were evaluated in duplicate, for oxidative stability using the Rancimat stability test at 100°C and 20 cc/min of air. Experimental parameters were chosen to match those used with the Active Oxygen Method (AOM) or Swift Stability Test (Van Oosten et al., 1981). Results are reported in Table 8 as hours required to reach a peroxide level of 100 meq. Table 7: Concentrations of Antioxidants

[2] = test system: Helicobacter pylori; assay: Disk diffusion bioassay; assay type: cell-based; conditions: control disk, 80ug, read-out: H. pylori Inhibition
Protocol: (§1) A study was conducted to evaluate the antimicrobial activity of procyanidin oligomers against Helicobacter pylori and Staphylococcus aureus. Pentamer enriched material was prepared as described in Example 13, Method A and analyzed as described in Example 14, Method C, where 89% was pentamer, and 11% was higher oligomers (n is 6 to 12). Purified pentamer (96.3%) was prepared as described in Example 14, Method D.
(§2) Helicobacter pylori and Staphylococcus aureus were obtained from the American Type Culture Collection (ATCC). For H. pylori, the vial was rehydrated with 0.5 mL Trypticase Soy broth and the suspension transferred to a slant of fresh TSA containing 5% defibrinated sheep blood. The slant was incubated at 37°C for 3 to 5 days under microaerophilic conditions in anaerobic jars (5 to 10% carbon dioxide; CampyPakPlus, BBL). When good growth was established in the pool of broth at the bottom of the slant, the broth was used to inoculate additional slants of TSA with sheep blood. Because viability decreased with continued subculturing, the broth harvested from the slants was pooled and stored at -80°C. Cultures for assay were used directly from the frozen vials. […]
(§3) A cell suspension of each culture was prepared (H. pylori, 10^8 to 10^9 cfu/mL; S. aureus 10^6 to 10^7 cfu/mL) and 0.5 mL spread onto TSA plates with 5% sheep blood. […] Zones of inhibition were measured following outgrowth. […]

[3] = test system: Staphylococcus aureus; assay: Disk diffusion bioassay; assay type: cell-based; conditions: read-out: S. aureus Inhibition
Protocol: as §1, §2, §3

[4] = test system: Human umbilical vein endothelial cells (HUVEC); assay: NO production by HUVEC, Griess reaction; assay type: cell-based
Protocol: Human umbilical vein endothelial cells (HUVEC) were obtained from Clonetics and cultures were carried out according to the manufacturer's specifications. HUVEC cells were seeded at 5,000 cells/cm^2 in 12-well plates (Falcon). After the third passage under the same conditions, they were allowed to reach confluence. The supernatant was renewed with fresh medium containing defined concentrations of bradykinin (25,50 and 100nM) or cocoa procyanidin fractions A-E (100µg/mL) as described in example 31. The culture was continued for 24 hr. and the cell free supernatants were collected and stored frozen prior to assessment of NO content as described below. In selected experiments, the NO synthase (NOS) antagonist, Nω-nitro-L-arginine methyl ester (L-NAME, 10µM) was added to assess the involvement of NOS in the observed NO production.
HUVEC NO production was estimated by measuring nitrite concentration in the culture supernatant by the Griess reaction. Griess reagent was 1% sulfanilamide, 0.1% N-(1-naphthyl)-ethylenediamine dihydrochloride. Briefly, 50µL aliquots were removed from the various supernatants in quadruplicate and incubated with 150µL of the Griess reagent. The absorbency at 540 nm was determined in a multiscan (Labsystems Multiskans MCC/340) apparatus. Sodium nitrite was used at defined concentrations to establish standard curves. […]

**Q.** Which results are given for COc1ccc(O)c(C(C)(C)C)c1 [BHA, Butylated Hydroxyanisole]?
**A.** hours required to reach a peroxide level of 100 meq ([1]; 20 ppm nominal (actual levels in Table 7), control 10.5 ± 0.7): 13.5 ± 2.1 h; hours required to reach a peroxide level of 100 meq ([1]; 100 ppm nominal (actual levels in Table 7)): 14.0 ± 1.4 h

**Q.** For Cc1ncc([N+](=O)[O-])n1CCO [Metronidazole standard, metronidazole], which zone of inhibition at 80 µg/disc [2] is on record?
**A.** Its zone of inhibition at 80 µg/disc is 11 mm.

**Q.** For CN[C@H](CC(C)C)C(=O)N[C@H]1C(=O)N[C@@H](CC(N)=O)C(=O)N[C@H]2C(=O)N[C@H]3C(=O)N[C@H](C(=O)N[C@H](C(=O)O)c4cc(O)cc(O)c4-c4cc3ccc4O)[C@H](O)c3ccc(c(Cl)c3)Oc3cc2cc(c3O[C@@H]2O[C@H](CO)[C@@H](O)[C@H](O)[C@H]2O[C@H]2C[C@](C)(N)[C@H](O)[C@H](C)O2)Oc2ccc(cc2Cl)[C@H]1O [Vancomycin standard, vancomycin], which zone of inhibition at 30 µg/disc [3] is on record?
**A.** The zone of inhibition at 30 µg/disc was 15 mm.

**Q.** Which results are given for “bradykinin (RPPGFSPFR; Bradykinin; UniProt P01042 381-389, looked up)”?
**A.** NO production by HUVEC ([4]; 25, 50 and 100nM, 24 hr): dose dependent release of NO; NO release in the presence of L-NAME ([4]; L-NAME 10µM): completely inhibited
